Experiments:
[1] = tested on: TLR7 induced IL-6 secretion in human mononuclear cells (PBMC's); experiment: TLR7 induced IL-6 in human PBMC's; format: cell-based; conditions: TLR7 specific ligand 2 uM overnight, IL-6 AlphaLISA
Protocol: TLR7 Induced IL-6 in Human PBMC's
Human PBMC assay was used as one of the functional assaya to monitor the activity of IRAK1 and IRAK4 small molecule inhibitors on TLR7 induced IL-6 secretion in human mononuclear cells (PBMC's). Human PBMCs were prepared from buffy coats (whole blood enriched with leukocytes and platelets) obtained from healthy volunteers used either fresh or frozen are plated in assay media (RPMI+2% P/S/L-glu+10% HI-FBS) and pre-treated with compounds in DMSO/media (range of concentrations from 25 uM to 0.4 nM) or controls (0.25% DMSO) for 30 minutes at 37° C. in assay media. Following pre-treatment with IRAK1 and IRAK4 inhibitors, PBMC's were stimulated with TLR7 specific ligand (2 uM) overnight (16-18 hrs) at 37° C. After incubation supernatant was transferred to 384 well PE AlphaPlate-384 (6005350) and IL-6 is quantified using Perkin Elmer IL-6 Alpha LISA kit (AL223C). Plates were read on an Envision® plate reader with Alpha Technology®.

IRAK1 = target: T1, IRAK1 (Homo sapiens, UniProt P51617); experiment: IRAK1 enzymatic assay (ADP-Glo luminescence); format: biochemical; conditions: human recombinant His-TEV-IRAK1 (194-712), ATP 1 μM; read-out: IRAK 1 IC50
T1 construct: His-TEV-IRAK1 (194-712); His (N); TEV cleavage site (N)
T1 sequence (P51617 194-712): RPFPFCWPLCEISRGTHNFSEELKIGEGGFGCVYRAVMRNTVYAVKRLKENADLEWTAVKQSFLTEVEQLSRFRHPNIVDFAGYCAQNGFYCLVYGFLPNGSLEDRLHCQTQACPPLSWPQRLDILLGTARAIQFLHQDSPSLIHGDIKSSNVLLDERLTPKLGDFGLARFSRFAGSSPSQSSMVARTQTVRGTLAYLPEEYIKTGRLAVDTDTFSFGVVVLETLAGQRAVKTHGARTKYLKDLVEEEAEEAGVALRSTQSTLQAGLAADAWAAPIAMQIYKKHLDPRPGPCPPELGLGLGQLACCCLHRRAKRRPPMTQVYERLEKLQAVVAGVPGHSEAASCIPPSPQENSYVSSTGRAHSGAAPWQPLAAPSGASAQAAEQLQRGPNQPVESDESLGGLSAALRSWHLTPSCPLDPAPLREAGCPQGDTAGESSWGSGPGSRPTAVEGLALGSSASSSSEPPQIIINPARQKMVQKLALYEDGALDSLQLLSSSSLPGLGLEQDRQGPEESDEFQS
Protocol: IRAK1 is a human purified recombinant enzyme (His-TEV-IRAK1 (194-712))
In this assay, IRAK1 hydrolyses ATP and autophosphorylates. Measurement of IRAK-1 inhibition is performed in 384-well format based on luminescence assay (ADP-Glo™ Kinase Assay from Promega). Purified human recombinant IRAK1 ([…]) and serial diluted compounds in DMSO (range of concentration from 10 μM to 0.5 nM) or controls (1% DMSO) are incubated for 15 minutes at RT in assay buffer containing 50 mM Hepes pH 7.0, Fatty acid-free BSA 0.1%, Dithiothreitol (DTT) 2 mM, MgCl2 10 mM, EGTA 0.5 mM, Triton X-100 0.01%. The kinase reaction is then initiated by the addition of ATP at a concentration of 1 μM. After 2 hours of incubation at RT, the reaction is stopped and the unconsumed ATP depleted by the addition of ADP-Glo™ Reagent according to supplier instructions. After 40 minutes of incubation at RT, the Kinase Detection Reagent is then added to the assay plate according to supplier instructions. After 20 minutes of incubation at RT, the luminescence signal is measured with a luminometer (PerkinElmer Envision or equivalent reader).

IRAK4 = target: T2, IRAK4 (Homo sapiens, UniProt Q9NWZ3); experiment: IRAK4 enzymatic assay (ADP-Glo luminescence); format: biochemical; conditions: human recombinant His-TEV-IRAK4 (1-460), STK1-biotin peptide substrate
T2 construct: His-TEV-IRAK4 (1-460); His (N); TEV cleavage site (N)
T2 sequence (Q9NWZ3 1-460): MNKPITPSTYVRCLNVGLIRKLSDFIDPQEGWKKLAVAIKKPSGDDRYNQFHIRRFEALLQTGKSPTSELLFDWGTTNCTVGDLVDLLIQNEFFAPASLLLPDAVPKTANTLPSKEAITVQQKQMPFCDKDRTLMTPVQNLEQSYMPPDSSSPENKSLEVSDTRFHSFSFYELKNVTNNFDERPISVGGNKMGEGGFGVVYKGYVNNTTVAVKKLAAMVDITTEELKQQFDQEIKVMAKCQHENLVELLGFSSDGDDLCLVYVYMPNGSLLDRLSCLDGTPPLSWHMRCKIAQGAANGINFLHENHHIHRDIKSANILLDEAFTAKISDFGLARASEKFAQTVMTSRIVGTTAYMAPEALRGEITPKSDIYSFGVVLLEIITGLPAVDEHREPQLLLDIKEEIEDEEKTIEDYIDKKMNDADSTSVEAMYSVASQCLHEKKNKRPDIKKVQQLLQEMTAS
Protocol: IRAK4 is a human purified recombinant enzyme (His-TEV-IRAK4 (1-460)).
In this assay, IRAK4 hydrolyses ATP, autophosphorylates and phosphorylates a Serine/Threonine generic peptidic substrate (STK: 61ST1BLC from CisBio International). Measurement of IRAK-4 inhibition is performed in 384-well format based on a luminescence assay (ADP-Glo™ Kinase Assay from Promega). Purified human recombinant IRAK4 ([…]) and serial diluted compounds in DMSO (range of concentration from 10 μM to 0.5 nM) or controls (1% DMSO) are incubated for 15 minutes at RT in assay buffer containing 50 mM Hepes pH 7.0, Fatty acid-free BSA 0.1%, Dithiothreitol (DTT) 2 mM, MgCl2 10 mM, EGTA 0.5 mM, Triton X-100 0.01%, MnCl2 5 mM. The kinase reaction is then initiated by the addition of ATP ([…]) and the peptidic substrate STK1-biotin peptide (300 nM). After 2 hours of incubation at RT, the reaction is stopped and the unconsumed ATP depleted by the addition of ADP-Glo™ Reagent according to supplier instructions. After 40 minutes of incubation at RT, the Kinase Detection Reagent is then added to the assay plate according to supplier instructions. After 20 minutes of incubation at RT, the luminescence signal is measured with a plate-reading luminometer (PerkinElmer Envision or equivalent reader).

SMILES | IC50 ([1]; Homo sapiens, PBMC) [nM] | IC50 (IRAK1) [nM] | IC50 (IRAK4) [nM] | IC50 [1] [nM]
CN1CC(c2ccc3c(c2)nc(NC(=O)c2cccc(C(F)(F)F)c2)n3CCCO)C(C)(C)C1=O (single isomer, unassigned) [Compound 25a] | 100 to 1000 | ≤ 100 | ≤ 100 | 
CN1CCC(c2ccc3c(c2)nc(NC(=O)c2cccc(C(F)(F)F)c2)n3CCCO)C1=O (stereo not drawn) [Compound 23, N-[1-(3-hydroxypropyl)-5-(1-methyl-2-oxopyrrolidin-3-yl)-1H-1,3-benzodiazol-2-yl]-3-(trifluoromethyl)benzamide] | ≤ 100 | 100 to 1000 | ≤ 100 | 
CN1CCC(c2ccc3c(c2)[nH]/c(=N\C(=O)c2cccc(C(F)(F)F)c2)n3CC(O)CO)C1=O (single isomer, unassigned) [Compound 20a] |  | 100 to 1000 | ≤ 100 | 100 to 1000
CN1CCC(C)(c2ccc3c(c2)nc(NC(=O)c2cccc(C(F)F)c2)n3CCCO)C1=O (single isomer, unassigned) [Compound 30a] | 1000 to 10000 | 1000 to 10000 | ≤ 100 | 
Cc1ccn(C)c(=O)c1-c1ccc2c(c1)[nH]/c(=N\C(=O)c1cccc(C(F)(F)F)c1)n2CCCO [Compound 6, (E)-N-(5-(1,4-dimethyl-2-oxo-1,2-dihydropyridin-3-yl)-1-(3-hydroxypropyl)-1H-benzo[d]imidazol-2(3H)-ylidene)-3-(trifluoromethyl)benzamide] |  | 100 to 1000 | ≤ 100 | 
Cn1cccc(-c2ccc3c(c2)[nH]/c(=N\C(=O)c2cccc(C(F)(F)F)c2)n3CCCO)c1=O [Compound 4, (E)-N-(1-(3-hydroxypropyl)-5-(1-methyl-2-oxo-1,2-dihydropyridin-3-yl)-1H-benzo[d]imidazol-2(3H)-ylidene)-3-(trifluoromethyl)benzamide] |  | 100 to 1000 | ≤ 100 | 
O=C(/N=c1\[nH]c2cc(C3CCCN(CC4CC4)C3=O)ccc2n1CCCO)c1cccc(C(F)(F)F)c1 (stereo not drawn) [Compound 7, (E)-N-(5-(1-(cyclopropylmethyl)-2-oxopiperidin-3-yl)-1-(3-hydroxypropyl)-1H-benzo[d]imidazol-2(3H)-ylidene)-3-(trifluoromethyl)benzamide] | 100 to 1000 | 100 to 1000 | ≤ 100 | 
CC(=O)N1C2CCC1CC(c1ccc3c(c1)[nH]/c(=N\C(=O)c1cccc(C(F)(F)F)c1)n3CCCO)C2 (stereo not drawn) [Compound 15, (E)-N-(5-(8-acetyl-8-azabicyclo[3.2.1]octan-3-yl)-1-(3-hydroxypropyl)-1H-benzo[d]imidazol-2(3H)-ylidene)-3-(trifluoromethyl)benzamide] | ≤ 100 | ≤ 100 | ≤ 100 | 
CN1CCC(c2ccc3c(c2)[nH]/c(=N\C(=O)c2cccc(C(F)(F)F)c2)n3CCC(O)CO)C1=O (single isomer, unassigned) [Compound 21a] | 100 to 1000 | 100 to 1000 | ≤ 100 | 
CN1CC(c2ccc3c(c2)nc(NC(=O)c2cccc(C(F)F)c2)n3CCCO)C(C)(C)C1=O (single isomer, unassigned) [Compound 27b] |  | 100 to 1000 | ≤ 100 | 100 to 1000
CN1CCCC(c2ccc3c(c2)[nH]/c(=N\C(=O)c2cccc(C(F)(F)F)c2)n3CCC(O)CO)C1=O (stereo not drawn) [Compound 22, N-[1-(3,4-Dihydroxy-butyl)-5-(1-methyl-2-oxo-piperidin-3-yl)-1,3-dihydro-benzoimidazol-(2E)-ylidene]-3-trifluoromethyl-benzamide] | ≤ 100 | 100 to 1000 | ≤ 100 | 
C=CCn1/c(=N/C(=O)c2cccc(C(F)(F)F)c2)[nH]c2cc(C3CCN(C)C3=O)ccc21 (stereo not drawn) [Compound 19, N-[1-Allyl-5-(1-methyl-2-oxo-pyrrolidin-3-yl)-1,3-dihydro-benzoimidazol-(2E)-ylidene]-3-trifluoromethyl-benzamide] | 100 to 1000 | 100 to 1000 | ≤ 100 | 
CN1CCC[C@@H](c2ccc3c(c2)[nH]/c(=N\C(=O)c2cccc(C(F)(F)F)c2)n3CCCO)C1=O [Compound 1a, (S,E)-N-(1-(3-hydroxypropyl)-5-(1-methyl-2-oxopiperidin-3-yl)-1H-benzo[d]imidazol-2(3H)-ylidene)-3-(trifluoromethyl)benzamide] | ≤ 100 | ≤ 100 | ≤ 100 | 
Cn1cncc(-c2ccc3c(c2)[nH]/c(=N\C(=O)c2cccc(C(F)(F)F)c2)n3CCCO)c1=O [Compound 5, (E)-N-(1-(3-hydroxypropyl)-5-(1-methyl-6-oxo-1,6-dihydropyrimidin-5-yl)-1H-benzo[d]imidazol-2(3H)-ylidene)-3-(trifluoromethyl)benzamide] | 100 to 1000 | 100 to 1000 | ≤ 100 | 
CN1CCC(c2ccc3c(c2)[nH]/c(=N\C(=O)c2cccc(C(F)(F)F)c2)n3CCC(O)CO)C1=O (single isomer, unassigned) [Compound 21c] |  | 100 to 1000 | ≤ 100 | ≤ 100
CN1CCCC(c2ccc3c(c2)[nH]/c(=N\C(=O)c2cccc(C(F)(F)F)c2)n3CCC(O)CO)C1=O (single isomer, unassigned) [Compound 22d] |  | 100 to 1000 | ≤ 100 | 100 to 1000
O=C1C=C(c2ccc3c(c2)[nH]/c(=N\C(=O)c2cccc(C(F)(F)F)c2)n3CCCO)CO1 [Compound 9, (E)-N-(1-(3-hydroxypropyl)-5-(5-oxo-2,5-dihydrofuran-3-yl)-1H-benzo[d]imidazol-2(3H)-ylidene)-3-(trifluoromethyl)benzamide] |  | 100 to 1000 | ≤ 100 | 
O=C(/N=c1\[nH]c2cc(C3(O)COC3)ccc2n1CCCO)c1cccc(C(F)(F)F)c1 [Compound 11, (E)-N-(5-(3-hydroxyoxetan-3-yl)-1-(3-hydroxypropyl)-1H-benzo[d]imidazol-2(3H)-ylidene)-3-(trifluoromethyl)benzamide] |  | 1000 to 10000 | ≤ 100 | 
CN1CCCC(c2ccc3c(c2)[nH]/c(=N\C(=O)c2cccc(C(F)F)c2)n3C[C@](C)(F)CO)C1=O (stereo partly drawn) [Compound 2a, (E)-3-(difluoromethyl)-N-(1-((S)-2-fluoro-3-hydroxy-2-methylpropyl)-5-(1-methyl-2-oxopiperidin-3-yl)-1H-benzo[d]imidazol-2(3H)-ylidene)benzamide] |  | 100 to 1000 | ≤ 100 | 
O=C(/N=c1\[nH]c2cc(C3CCCCC3=O)ccc2n1CCCO)c1cccc(C(F)(F)F)c1 (stereo not drawn) [Compound 8, (E)-N-(1-(3-hydroxypropyl)-5-(2-oxocyclohexyl)-1H-benzo[d]imidazol-2(3H)-ylidene)-3-(trifluoromethyl)benzamide] |  | ≤ 100 | ≤ 100 | 

From patent US9969710B2, “Heteroaryl compounds as IRAK inhibitors and uses thereof” (Merck Patent GmbH, priority 2015, dated 2018)
